Source: patent publication US20240092758A1, “IMIDAZOLO INDAZOLE COMPOUNDS AS JAK INHIBITORS” (Theravance Biopharma R&D IP, LLC, priority 2021, published 2024)

How the values were obtained:
JAK1 = JAK1 (Homo sapiens (Human), UniProt P23458); assay: Biochemical JAK kinase assay (LanthaScreen), JAK1; settings: for Ki: read-out: JAK1 pKi (converted)
Summary of the method: (§1)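 LanthaScreen format: phospho-STAT1 (pTyr701) detected with 2 nM Tb antibody after 10 mM EDTA quench. Kinase step used Km-level ATP and 200 nM STAT1 peptide, 1 h at ambient after 1 h pre-incubation. Inhibition fitted to IC50, reported as pKi.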

JAK2 = JAK2 (Homo sapiens (Human), UniProt O60674); assay: Biochemical JAK kinase assay (LanthaScreen), JAK2; settings: for Ki: read-out: JAK2 pKi (converted)
Summary of the method: as §1

[1] = tested on: IL-13 induced STAT6 phosphorylation in BEAS-2B human lung epithelial cells; assay: Cellular JAKI potency assay (BEAS-2B); type: cell-based; settings: Homo sapiens, BEAS-2B, BEAS-2B cells, read-out: BEAS2B pIC50 (converted)
Summary of the method: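 BEAS-2B cells were preincubated with compound (0.1% DMSO) in HBSS/HEPES/BSA for 1 h at 37 °C, then stimulated with IL-13 (80 ng/mL before addition) for 30 min. After lysis, pSTAT6 (Tyr641) was quantified by AlphaLISA SureFire; IC50 from a 4-parameter fit of percent inhibition, reported as pIC50.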

Chain of JAK1 (P23458 whole entry): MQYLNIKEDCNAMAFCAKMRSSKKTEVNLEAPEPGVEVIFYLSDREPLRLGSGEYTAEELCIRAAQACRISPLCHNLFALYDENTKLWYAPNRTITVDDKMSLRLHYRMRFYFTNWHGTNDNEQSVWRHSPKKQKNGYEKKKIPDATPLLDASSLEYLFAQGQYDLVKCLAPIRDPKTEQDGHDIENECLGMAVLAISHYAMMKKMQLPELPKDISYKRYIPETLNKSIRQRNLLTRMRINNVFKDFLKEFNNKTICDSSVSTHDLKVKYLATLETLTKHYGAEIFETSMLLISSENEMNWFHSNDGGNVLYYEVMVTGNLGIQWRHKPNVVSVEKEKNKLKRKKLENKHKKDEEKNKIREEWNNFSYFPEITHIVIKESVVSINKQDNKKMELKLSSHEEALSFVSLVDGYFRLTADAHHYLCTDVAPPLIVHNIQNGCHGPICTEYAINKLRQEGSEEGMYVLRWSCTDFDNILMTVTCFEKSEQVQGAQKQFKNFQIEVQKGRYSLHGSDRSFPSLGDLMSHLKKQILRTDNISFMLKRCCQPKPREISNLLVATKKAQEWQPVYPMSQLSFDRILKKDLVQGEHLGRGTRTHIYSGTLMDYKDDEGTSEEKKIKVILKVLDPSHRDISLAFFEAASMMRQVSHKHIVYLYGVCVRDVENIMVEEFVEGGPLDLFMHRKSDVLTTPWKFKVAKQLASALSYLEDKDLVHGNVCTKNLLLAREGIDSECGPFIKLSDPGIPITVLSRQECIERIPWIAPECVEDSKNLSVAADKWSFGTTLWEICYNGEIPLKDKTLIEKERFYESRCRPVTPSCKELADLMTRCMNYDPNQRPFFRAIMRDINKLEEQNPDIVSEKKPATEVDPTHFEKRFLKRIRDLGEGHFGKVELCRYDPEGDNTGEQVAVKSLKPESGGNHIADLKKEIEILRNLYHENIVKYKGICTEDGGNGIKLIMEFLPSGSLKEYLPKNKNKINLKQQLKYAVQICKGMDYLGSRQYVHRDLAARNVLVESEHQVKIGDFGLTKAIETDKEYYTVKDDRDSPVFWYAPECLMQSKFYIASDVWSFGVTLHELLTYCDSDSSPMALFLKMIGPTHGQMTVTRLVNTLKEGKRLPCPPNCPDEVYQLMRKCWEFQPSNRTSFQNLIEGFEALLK
Chain of JAK2 (O60674 whole entry): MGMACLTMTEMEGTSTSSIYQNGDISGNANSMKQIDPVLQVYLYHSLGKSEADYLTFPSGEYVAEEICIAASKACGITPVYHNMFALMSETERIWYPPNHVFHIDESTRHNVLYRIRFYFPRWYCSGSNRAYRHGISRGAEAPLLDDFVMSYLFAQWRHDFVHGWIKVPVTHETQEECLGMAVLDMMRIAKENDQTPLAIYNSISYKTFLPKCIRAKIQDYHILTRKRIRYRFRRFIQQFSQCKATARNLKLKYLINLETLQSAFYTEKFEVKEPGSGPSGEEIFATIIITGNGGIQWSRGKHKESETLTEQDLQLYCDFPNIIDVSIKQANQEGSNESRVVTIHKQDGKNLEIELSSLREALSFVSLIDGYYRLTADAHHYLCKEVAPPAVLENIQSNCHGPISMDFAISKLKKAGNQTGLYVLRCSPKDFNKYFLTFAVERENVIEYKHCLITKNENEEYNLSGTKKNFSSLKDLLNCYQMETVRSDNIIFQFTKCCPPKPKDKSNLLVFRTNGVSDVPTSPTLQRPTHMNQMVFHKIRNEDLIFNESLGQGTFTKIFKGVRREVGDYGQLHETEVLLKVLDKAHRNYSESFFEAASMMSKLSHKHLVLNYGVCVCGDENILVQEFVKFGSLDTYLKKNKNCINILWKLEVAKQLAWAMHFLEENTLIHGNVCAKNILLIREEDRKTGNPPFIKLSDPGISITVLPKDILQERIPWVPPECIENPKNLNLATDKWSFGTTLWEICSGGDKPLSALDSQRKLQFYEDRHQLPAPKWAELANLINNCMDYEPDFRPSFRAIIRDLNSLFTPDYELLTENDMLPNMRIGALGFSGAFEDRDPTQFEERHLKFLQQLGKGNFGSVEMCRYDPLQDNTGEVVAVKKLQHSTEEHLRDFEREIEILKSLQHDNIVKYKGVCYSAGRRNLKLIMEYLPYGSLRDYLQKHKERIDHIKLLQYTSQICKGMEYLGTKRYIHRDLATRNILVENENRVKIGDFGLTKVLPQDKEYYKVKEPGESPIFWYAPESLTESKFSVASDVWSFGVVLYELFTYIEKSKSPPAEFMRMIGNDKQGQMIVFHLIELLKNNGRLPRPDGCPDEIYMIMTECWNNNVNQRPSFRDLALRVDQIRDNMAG

Row | Compound | JAK1 pKi (JAK1) | JAK2 pKi (JAK2) | IC50 [1] | Ki (JAK1) | Ki (JAK2)
1 | CCc1cc(O)ccc1-c1ccc2c(-c3nc(C4=C[C@H](CO)N(C5CCOCC5)C4)c[nH]3)n[nH]c2c1F [Example 274] | A (A represents a pKi value ≥10 (Ki≤0.1 nM)) | A (A represents a pKi value ≥10 (Ki≤0.1 nM)) | 10 to 31.6 nM |  | 
2 | CCc1cc(O)ccc1-c1ccc2c(-c3nc(C4=CC[C@H](C)N(CC(=O)NC)C4)c[nH]3)n[nH]c2c1F [Example 275] |  |  | 10 to 31.6 nM | 0.1 to 1 nM | 0.1 to 1 nM
3 | CCc1cc(O)ccc1-c1ccc2c(-c3nc(C4=CC[C@H](C)N(CCS(C)(=O)=O)C4)c[nH]3)n[nH]c2c1F [Example 276] |  |  | 31.6 to 100 nM | 1 to 10 nM | 0.1 to 1 nM
4 | CCc1cc(O)ccc1-c1ccc2c(-c3nc(C4=CC[C@H](C)N(CCS(=O)(=O)NC)C4)c[nH]3)n[nH]c2c1F [Example 277] |  |  | 31.6 to 100 nM | 1 to 10 nM | 0.1 to 1 nM
5 | CCc1cc(O)ccc1-c1ccc2c(-c3nc(C4=CC[C@H](C)N(CCNS(C)(=O)=O)C4)c[nH]3)n[nH]c2c1F [Example 278] |  |  | 10 to 31.6 nM | 0.1 to 1 nM | 0.1 to 1 nM
6 | CCc1cc(O)ccc1-c1ccc2c(-c3nc(C4=CCN(CC)C4)c[nH]3)n[nH]c2c1F [Example 283] | A (A represents a pKi value ≥10 (Ki≤0.1 nM)) | A (A represents a pKi value ≥10 (Ki≤0.1 nM)) | 3.16 to 10 nM |  | 
7 | CCc1cc(O)c(F)cc1-c1ccc2c(-c3nc(C4=CCNCC4)c[nH]3)n[nH]c2c1 [Example 284] | A (A represents a pKi value ≥10 (Ki≤0.1 nM)) | A (A represents a pKi value ≥10 (Ki≤0.1 nM)) | 3.16 to 10 nM |  | 
8 | CCc1cc(O)c(F)cc1-c1ccc2c(-c3nc(C4=CCNC4)c[nH]3)n[nH]c2c1 [Example 285] | A (A represents a pKi value ≥10 (Ki≤0.1 nM)) | A (A represents a pKi value ≥10 (Ki≤0.1 nM)) | 3.16 to 10 nM |  | 
9 | CCOC(=O)C[C@H]1C=C(c2c[nH]c(-c3n[nH]c4c(F)c(-c5ccc(O)cc5CC)ccc34)n2)CN1 [Example 286] |  |  | 3.16 to 10 nM | 0.1 to 1 nM | 0.1 to 1 nM
10 | CCc1cc(O)ccc1-c1ccc2c(-c3nc(C4=CCN([C@H]5CC[C@@H](O)CC5)C4)c[nH]3)n[nH]c2c1 [Example 287] | A (A represents a pKi value ≥10 (Ki≤0.1 nM)) | A (A represents a pKi value ≥10 (Ki≤0.1 nM)) | 3.16 to 10 nM |  | 
11 | CCCN1CC=C(c2c[nH]c(-c3n[nH]c4c(F)c(-c5ccc(O)cc5CC)ccc34)n2)C1 [Example 288] | A (A represents a pKi value ≥10 (Ki≤0.1 nM)) | A (A represents a pKi value ≥10 (Ki≤0.1 nM)) | 3.16 to 10 nM |  | 
12 | CCc1cc(O)ccc1-c1ccc2c(-c3nc(C4=C[C@H](CO)N(C)C4)c[nH]3)n[nH]c2c1F [Example 289] | A (A represents a pKi value ≥10 (Ki≤0.1 nM)) | A (A represents a pKi value ≥10 (Ki≤0.1 nM)) | 3.16 to 10 nM |  | 
13 | CCc1cc(O)ccc1-c1ccc2c(-c3nc(C4=CCN(CC5CC5)C4)c[nH]3)n[nH]c2c1F [Example 290] | A (A represents a pKi value ≥10 (Ki≤0.1 nM)) | A (A represents a pKi value ≥10 (Ki≤0.1 nM)) | 3.16 to 10 nM |  | 
14 | CCc1cc(O)ccc1-c1ccc2c(-c3nc(C4=C[C@@H](C)NC4)c[nH]3)n[nH]c2c1F [Example 292] |  |  | 3.16 to 10 nM | 0.1 to 1 nM | 0.1 to 1 nM
15 | CCc1cc(O)ccc1-c1ccc2c(-c3nc(C4=C(C(=O)OC)CNCC4)c[nH]3)n[nH]c2c1F [Example 294] |  | A (A represents a pKi value ≥10 (Ki≤0.1 nM)) | 3.16 to 10 nM | 0.1 to 1 nM | 
16 | CCc1cc(O)ccc1-c1ccc2c(-c3nc(C4=C(C(=O)OC)CCNC4)c[nH]3)n[nH]c2c1F [Example 295] |  | A (A represents a pKi value ≥10 (Ki≤0.1 nM)) | 3.16 to 10 nM | 0.1 to 1 nM | 

Row | Compound | JAK1 pKi (JAK1) | JAK2 pKi (JAK2) | IC50 [1] | Ki (JAK1) | Ki (JAK2)
17 | CCc1cc(O)ccc1-c1ccc2c(-c3nc(C4=CCN(Cc5cn[nH]c5)C4)c[nH]3)n[nH]c2c1 [Example 296] | A (A represents a pKi value ≥10 (Ki≤0.1 nM)) | A (A represents a pKi value ≥10 (Ki≤0.1 nM)) | 10 to 31.6 nM |  | 
18 | CCc1cc(O)ccc1-c1ccc2c(-c3nc(C4=CCN(CCCO)C4)c[nH]3)n[nH]c2c1 [Example 297] |  |  | 10 to 31.6 nM | 0.1 to 1 nM | 0.1 to 1 nM
19 | CCOC(=O)C1=C(c2c[nH]c(-c3n[nH]c4c(F)c(-c5ccc(O)cc5CC)ccc34)n2)CNCC1 [Example 301] | A (A represents a pKi value ≥10 (Ki≤0.1 nM)) |  | 10 to 31.6 nM |  | 0.1 to 1 nM
20 | CCOC(=O)C1=C(c2c[nH]c(-c3n[nH]c4cc(-c5ccc(O)cc5CC)ccc34)n2)CNCC1 [Example 302] | A (A represents a pKi value ≥10 (Ki≤0.1 nM)) |  | 10 to 31.6 nM |  | 0.1 to 1 nM
21 | CCc1cc(O)ccc1-c1ccc2c(-c3nc(C4=CCN(C5CCC5)C4)c[nH]3)n[nH]c2c1F [Example 303] | A (A represents a pKi value ≥10 (Ki≤0.1 nM)) | A (A represents a pKi value ≥10 (Ki≤0.1 nM)) | 10 to 31.6 nM |  | 
22 | CCc1cc(O)ccc1-c1ccc2c(-c3nc(C4=CCN(C5CCC5)[C@H]4CO)c[nH]3)n[nH]c2c1F [Example 304] | A (A represents a pKi value ≥10 (Ki≤0.1 nM)) | A (A represents a pKi value ≥10 (Ki≤0.1 nM)) | 10 to 31.6 nM |  | 
23 | CCc1cc(O)ccc1-c1ccc2c(-c3nc(C4=CCC(C)(C)NC4)c[nH]3)n[nH]c2c1F [Example 306] |  |  | 10 to 31.6 nM | 0.1 to 1 nM | 0.1 to 1 nM
24 | CCc1cc(O)ccc1-c1ccc2c(-c3nc(C4=CCN(CCC5(O)CCC5)C4)c[nH]3)n[nH]c2c1F [Example 308] |  | A (A represents a pKi value ≥10 (Ki≤0.1 nM)) | 10 to 31.6 nM | 0.1 to 1 nM | 
25 | CCc1cc(O)ccc1-c1ccc2c(-c3nc(C4=C[C@H](CC(=O)OC(C)C)NC4)c[nH]3)n[nH]c2c1F [Example 309] |  |  | 10 to 31.6 nM | 0.1 to 1 nM | 0.1 to 1 nM
26 | CCc1cc(O)ccc1-c1ccc2c(-c3nc(C4=C[C@H]([C@H](C)O)NC4)c[nH]3)n[nH]c2c1F [Example 310] |  | A (A represents a pKi value ≥10 (Ki≤0.1 nM)) | 10 to 31.6 nM | 0.1 to 1 nM | 
27 | CCc1cc(O)ccc1-c1ccc2c(-c3nc(C4=CCN[C@@H](C)C4)c[nH]3)n[nH]c2c1F [Example 311] |  |  | 10 to 31.6 nM | 0.1 to 1 nM | 0.1 to 1 nM
28 | CCc1cc(O)ccc1-c1ccc2c(-c3nc(C4=CCNC(CC)C4)c[nH]3)n[nH]c2c1 (stereo not drawn) [Example 312] |  |  | 10 to 31.6 nM | 0.1 to 1 nM | 0.1 to 1 nM
29 | CCc1cc(O)ccc1-c1ccc2c(-c3nc(C4=CCNC4C)c[nH]3)n[nH]c2c1F (stereo not drawn) [Example 313] |  |  | 10 to 31.6 nM | 0.1 to 1 nM | 0.1 to 1 nM
30 | CCc1cc(O)ccc1-c1ccc2c(-c3nc(C4=C[C@H](CCO)NC4)c[nH]3)n[nH]c2c1F [Example 314] |  |  | 10 to 31.6 nM | 0.1 to 1 nM | 0.1 to 1 nM
31 | CCc1cc(O)ccc1-c1ccc2c(-c3nc(C4=C(C(=O)OC(C)C)CCNC4)c[nH]3)n[nH]c2c1F [Example 315] |  |  | 10 to 31.6 nM | 0.1 to 1 nM | 0.1 to 1 nM
32 | CCCCN1CC=C(c2c[nH]c(-c3n[nH]c4c(F)c(-c5ccc(O)cc5CC)ccc34)n2)C1 [Example 316] | A (A represents a pKi value ≥10 (Ki≤0.1 nM)) | A (A represents a pKi value ≥10 (Ki≤0.1 nM)) | 10 to 31.6 nM |  | 
